Results as given in patent publication US20230256051A1, “MODIFIED KISSPEPTIN RECEPTOR AGONISTS FOR FATTY LIVER DISEASE” (priority 2020, published 2023).
“Also recorded” adds a separate entry of the source. No end group written: not given here.

How the values were obtained:
[1] = cited from earlier work
[2] = tested on: primary mouse hepatocytes; assay: FFA-loaded isolated primary mouse hepatocytes treated with KP-10 or TAK
Protocol: (n=4) * p < 0.05; One-way ANOVA followed by Dunnett’s post-hoc test.
Primary hepatocytes from mice were isolated according to known methods. Mice (wild-type, C57BL6) or LKO and littermate controls were anesthetized using a ketamine/xylazine mixture (Henry Schein™). The liver was cannulated via the hepatic portal vein and first perfused with 37° C. Kreb’s Ringer solution containing EGTA for 10 minutes. After the first wash, a second Kreb’s Ringer solution containing CaCl2 and LIBERASE (Roche™) was used until the liver was thoroughly perfused. Hepatocytes were filtered through a gauze mesh and resuspended in William’s Media E (Sigma™) with 10 % FBS (Sigma™), 200 nM dexamethasone (Sigma™), 5 mM pen/strep (Fisher™), 2 mM L-glutamine (Fisher™). Cells were plated at a density of 3 × 10^5 on 6-well collagen-coated plates (Sigma™). Hepatocytes were left to recover overnight and then were serum starved for 3 hours prior to experiments. For free fatty acid (FFA) loading, 150 µM oleic and 150 µM palmitic acid was conjugated with 2% BSA (0.3 mM).

[3] = tested on: HFD-fed C57BL6/J mice (mouse model of NAFLD); assay: Diet-induced (HFD) mouse model of NAFLD, TAK-448 infused by subcutaneous mini-osmotic pump; type: in vivo; details: for liver steatosis / lipid accumulation (H&E, Oil Red O): 0.3 nmol/hour s.c. mini-osmotic pump, vs vehicle (PBS); for liver steatosis / lipid accumulation (H&E, Oil Red O) / insulin resistance / sensitivity (ITT) / glucose tolerance (GTT) / fasting glucose / body weight: 4 weeks; for insulin resistance / sensitivity (ITT) / glucose tolerance (GTT) / fasting glucose / body weight: 0.3 nmol/hour s.c. pump; for insulin resistance / sensitivity (ITT): 6 h fast, insulin 0.5 U/kg i.p.; for glucose tolerance (GTT): 12 h fast, D-glucose 1 g/kg i.p.; for liver triglycerides (TGs) / serum/blood glycerol: endpoint
Protocol: Animals were treated for 4 weeks unless otherwise indicated and maintained on RD or HFD (total of 10 weeks). Blood glucose measurements were obtained via a small nick in the lateral tail vein using a glucometer (Bayer ContourTM). For glucose tolerance tests, mice were fasted for 12 hours and then injected intraperitoneally with D-glucose (1 g/kg). For the insulin tolerance tests, mice were fasted for 6 hours and then injected intraperitoneally with insulin (0.5 U/kg; Novo NordiskTM). Mice where individually housed in an 8-chamber Clinical Laboratory Animal Monitoring System (CLAMS) with controlled light and feeding. Carbon dioxide output, oxygen update, respiratory exchange ratio (RER), ambulatory movement, and feeding were measured over a 4-day period. Serum insulin levels were measured using the Ultra-Sensitive Mouse Insulin ELISA Kit (Crystal ChemTM). Serum glycerol levels were measured using the Glycerol Assay Kit (SigmaTM). Liver triglycerides were measured using the triglyceride quantification kit (MBLTM international Catalog # JM-K622-500). Free fatty acids were measured using the Free Fatty Acid Quantification Kit (SigmaTM, […]). ALT levels were measured using Liquid ALT (SGPT) Reagent set according to the manufacturer's instructions; cholesterol levels were measured using the Cholesterol set according to the manufacturer's instructions. Immunoblot assays were conducted according to known methods. Mouse liver tissue or primary hepatocytes were homogenized in RIPA lysis buffer containing protease inhibitors and centrifuged at 4° C.; the protein expression in lysates was analyzed by Western blot analysis. Protein was separated using SDS-PAGE and probed using the following antibodies: […] Mouse anti-β actin (1:5000, Thermo Fisher ScientificTM) or anti-vinculin (1:1000, Bio-RadTM) were used for loading control. Protein was then incubated for 1 hour in horseradish peroxidase (HRP)-conjugated rabbit (1:2500, Cell Signaling TechnologyTM) or mouse (1:2500, Cell Signaling TechnologyTM) secondary antibody. Blots were imaged by chemiluminescence with ChemiDocTM Touch imaging system (Bio-RadTM), SuperSignal and West Dura Extended Duration Substrate (Thermo ScientificTM). Protein levels were quantified using Image Lab Software (Bio-RadTM). Total RNA was extracted from cells using the Trizol method. Reverse transcription was done according to manufacturer's instructions using iScript RT Supermix (Bio-RadTM). Gene expression was determined using SYBR green real-time qPCR (RT-qPCR) as described previously using primers shown in Table 7, below. The following primers were purchased from BioRadTM (validated […] primers): Srebpl, Aqp3, Aqp9, Gpat2, Agpat2, Dgat1, Dgat2, Mogat1, Slc2a2, […]1, Sod1, Sod2, Gss, Ucp2, and Gpam. Il-13 was purchased from QiagenTM (QT00099554). Primers for Srebf1, Aqp3, Aqp9, Gpat2, Agpat2, Dgat1, Dgat2, Mogat1, Slc2a2, Lgpat1, Sod1, Sod2, Gss, Ucp2, and Gpam are pre-made and were purchased from BioRadTM. Liver tissue was immediately fixed in 10% neutral formalin after mice were euthanized. Tissue was processed for histology by the Research Pathology Services at Rutgers University. Livers were sectioned into 5 μm thick sections and stained with hematoxylin and eosin. Sections were examined by light microscopy for histopathological changes. C57BL/6J mice fed high fat diet (HFD) or control regular diet (RD) for 12 weeks (4-5/group). TAK-448 (TAK) or Vehicle (Veh i.e., PBS controls) were administered for 4 weeks using an ALZET mini-osmotic pump implanted subcutaneously. Steatosis is shown by hematoxylin and eosin stained mouse livers (lipid accumulation, small white droplets, arrowheads) and by Oil Red O staining of lipids (red dots) in control livers (FIG. 1A). This was prevented in the TAK-448 treated group (FIG. 1A). […]

KISS1R [4] = target: T1, KISS1R (Homo sapiens, UniProt Q969F8); parameters: expressed in transfected cells; host or cells: CHO (CHO-KISS1R), membrane preparations; details: CHO-KISS1R membrane preparations; means +/- SE; n = 3-5; read-out: IC50 against [125I]KP-54 binding to KISS1R; cited from earlier work
Target sequence in this assay (Q969F8 whole entry, species assumed): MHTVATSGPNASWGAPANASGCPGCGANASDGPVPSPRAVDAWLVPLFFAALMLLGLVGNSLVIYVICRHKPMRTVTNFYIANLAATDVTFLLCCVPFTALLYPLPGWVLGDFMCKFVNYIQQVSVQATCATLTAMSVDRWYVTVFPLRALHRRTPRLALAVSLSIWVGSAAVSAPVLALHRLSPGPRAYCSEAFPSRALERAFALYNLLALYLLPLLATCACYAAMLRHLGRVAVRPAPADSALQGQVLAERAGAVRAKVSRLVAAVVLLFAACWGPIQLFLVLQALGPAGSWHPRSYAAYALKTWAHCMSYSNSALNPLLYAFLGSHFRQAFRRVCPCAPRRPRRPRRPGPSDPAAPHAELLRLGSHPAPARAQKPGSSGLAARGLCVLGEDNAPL

KISS1R [5] = target: T1, KISS1R; parameters: expressed in transfected cells; host or cells: CHO cells; details: [Ca2+] increasing activity, CHO cells expressing human KISS1R; (95% confidence interval); read-out: Agonist activity EC50; cited from earlier work
Target sequence in this assay (Q969F8 whole entry): as the sequence (Q969F8 whole entry, species assumed) above

healthy men = details: cited from earlier work
[6] = HFD livers, RT-qPCR, vs vehicle
[7] = HFD livers, RT-qPCR, vs vehicle, listed as TAK
[8] = HFD livers, western blot, vs vehicle
[9] = HFD mice, vs vehicle, listed as TAK
[10] = HFD mice, 4 weeks treatment, vs vehicle
[11] = HFD mice, 4 weeks treatment, vs vehicle, listed as TAK
[12] = HFD mice, 4 weeks treatment, vs vehicle, listed as TAK-488
[13] = treated vs untreated mice, 4 weeks post treatment

## CNC(=N)NCCC[C@H](NC(=O)[C@H](CC(C)C)NC(=O)NNC(=O)[C@H](Cc1ccccc1)NC(=O)[C@@H](NC(=O)[C@H](CC(N)=O)NC(=O)[C@@H]1C[C@@H](O)CN1C(=O)[C@@H](Cc1ccc(O)cc1)NC(C)=O)[C@@H](C)O)C(=O)N[C@@H](Cc1c[nH]c2ccccc12)C(N)=O.O=C(O)C(F)(F)F [TAK-448]
[1]
  half-life in the blood: 4 h
[2]; KP 100 nM or TAK 3 nM, 150 µM palmitate and 150 µM oleate, wild-type hepatocytes, n=4
  TG accumulation in FFA loaded hepatocytes: substantially decreased
[3]; HFD livers, RT-qPCR and western blot, vs vehicle, listed as TAK
  hepatic expression of PPARy, CD36 and MOGAT1: significantly reduced; also recorded: inhibited
[3]; [6]
  Gpam expression in liver: significantly reduced
  Lfabp1 and Gyk1 expression in liver: not significant
  Srebf1 expression in liver: not significant
  liver markers for oxidative stress (Ucp2, Gss): lower levels
[3]; [7]
  liver markers for fibrosis (Tgfb1, Timp1): lower levels; also recorded: reduction
  liver pro-inflammatory markers (Ip10, Mcp1): lower levels; also recorded: reduction
[3]; [8]
  Fasn expression in liver: significant decrease
  phosphorylation of AMPK in liver: induced phosphorylation
[3]; HFD mice
  liver steatosis / lipid accumulation (H&E, Oil Red O): prevented
[3]; HFD mice, listed as TAK
  liver steatosis / lipid accumulation (H&E, Oil Red O): protected against; also recorded: suppressed
[3]; HFD mice, vs vehicle
  insulin resistance / sensitivity (ITT): protected against; also recorded: prevented insulin resistance
  glucose tolerance (GTT): prevented glucose intolerance
  fasting glucose: prevented the rise
[3]; [9]
  insulin resistance / sensitivity (ITT): insulin sensitive; also recorded: improved
  glucose tolerance (GTT): glucose tolerant; also recorded: improved
  body weight: significantly lower; also recorded: prevented a gain
  fasting glucose: lower
[3]; HFD mice, vs vehicle, listed as TAK-488
  body weight: lowering
[3]; HFD mice, 4 weeks post treatment, vs vehicle
  food intake (CLAMS): without a change
[3]; HFD mice, 4 weeks post treatment, vs vehicle, listed as TAK
  food intake (CLAMS): without a change; also recorded: without changing
[3]; HFD mice, 4 weeks post treatment, vs vehicle, listed as Takeda-488
  food intake (CLAMS): no difference
[3]; [10]
  epididymal white adipose tissue (eWAT): significant decrease
  inguinal white adipose tissue (iWAT): significant decrease
  peripheral fat accumulation / adipose mass: protected against
  serum ALT: significantly lower
  serum/blood free fatty acids (FFA): prevented
  liver triglycerides (TGs): prevented
  serum/blood glycerol: prevented
[3]; [11]
  peripheral fat accumulation / adipose mass: lowered
  serum TGs: significant decrease; also recorded: reduced
  serum cholesterol: significantly lower; also recorded: reduced
  serum/blood free fatty acids (FFA): significantly lower; also recorded: reduced
  liver triglycerides (TGs): significant decrease
  serum/blood glycerol: significantly lower
[3]; [12]
  peripheral fat accumulation / adipose mass: lowering
  serum/blood free fatty acids (FFA): lowering
  liver triglycerides (TGs): lowering
  serum/blood glycerol: lowering
[3]; [13]
  heat production (CLAMS): no differences
  respiratory exchange ratio (RER, CLAMS): no differences

## ANWNSFGLRF [ANA1]
KISS1R [4]
  IC50: 23.2 ± 14.3 nM

## Ac-YNK(Palm-γ-D)NSFGT[Tz]LRY-NH2 [Compound 4**, Decourt et al., 2016 numbering]
KISS1R [5]
  EC50: 2.1 nM

## Ac-YNWNSFGT[Tz]LR[Me]Y-NH2 [Compound 7**, Decourt et al., 2016 numbering]
KISS1R [5]
  EC50: 1.5 nM

## FNWNSFGLRF [ANA11]
KISS1R [4]
  IC50: 3.5 ± 2.1 nM

## Gly-Thr-Ser-Leu-Ser-Pro-Pro-Pro-Glu-Ser-Ser-Gly-Ser-Arg-Gln-Gln-Pro-Gly-Leu-Ser-Ala-Pro-His-Ser-Arg-Gln-Ile-Pro-Ala-Pro-Gln-Gly-Ala-Val-Leu-Val-Gln-Arg-Glu-Lys-Asp-Leu-Pro-Asn-Tyr-Asn-Trp-Asn-Ser-Phe-Gly-Leu-Arg-Phe-NH2 (GTSLSPPPESSGSRQQPGLSAPHSRQIPAPQGAVLVQREKDLPNYNWNSFGLRF-NH2) [Kisspeptin-54]
Healthy men
  food intake or appetite: without altering
  insulin secretion: enhance

## Palm-γ-DYNWNSFGT[Tz]LR[Me]Y-NH2 [Compound 6**, Decourt et al., 2016 numbering]
KISS1R [5]
  EC50: 0.17 nM

## Palm-γ-DYNWNSFG′P[Tz]LRY-NH2 [Compound 5**, Decourt et al., 2016 numbering]
KISS1R [5]
  EC50: 0.13 nM

## YAWNSFGLRF [ANA2]
KISS1R [4]
  IC50: 145 ± 138 nM

## YDWNSFGLRF [ANA12]
KISS1R [4]
  IC50: 29.1 ± 13.5 nM

## YNANSFGLRF [ANA3]
KISS1R [4]
  IC50: 2.7 ± 0.7 nM

## YNWASFGLRF [ANA4]
KISS1R [4]
  IC50: 43.5 ± 15.5 nM

## YNWDSFGLRF [ANA13]
KISS1R [4]
  IC50: 140 ± 60.6 nM

## YNWNAFGLRF [ANA5]
KISS1R [4]
  IC50: 0.8 ± 0.4 nM

## YNWNSAGLRF [ANA6]
KISS1R [4]
  IC50: 110 ± 89.8 nM

## YNWNSFALRF [ANA7]
KISS1R [4]
  IC50: 4.6 ± 1.5 nM

## YNWNSFGARF [ANA8]
KISS1R [4]
  IC50: 77.4 ± 10 nM

## YNWNSFGIRF [ANA 16]
KISS1R [4]
  IC50: 39.9 ± 8.1 nM

## YNWNSFGLKF [ANA17]
KISS1R [4]
  IC50: 9.8 ± 2.6 nM

## YNWNSFGLRF [Kisspeptin-10]
[2]; primary mouse hepatocytes, treatment for 8 hours, RT-qPCR
  expression of de novo lipogenic genes: reduced
[2]; primary mouse hepatocytes, western blot, n=4
  phosphorylation of AMPK and its downstream target ACC: stimulated phosphorylation

## YNWNSFGLRH [ANA18]
KISS1R [4]
  IC50: 378 ± 266 nM

## YNWNSFGLRY [Compound 2**, Decourt et al., 2016 numbering]
KISS1R [5]
  EC50: 0.057 nM

## YNWNSYGLRF [ANA15]
KISS1R [4]
  IC50: 87.5 ± 30.7 nM

## YNWNTFGLRF [ANA14]
KISS1R [4]
  IC50: 2.3 ± 1.6 nM
